Laboratory results: publication PMC5602572, “New carboxamide derivatives bearing benzenesulphonamide as a selective COX-II inhibitor: Design, synthesis and structure-activity relationship” (PLoS ONE, 2017)
Where two headings read alike, the source gives them in different places.

What was measured:
COX-2 = target: T1, COX-2 (Ovis aries, UniProt P79208); test: In vitro cyclooxygenase inhibitory assay (Cayman colorimetric COX (ovine) inhibitor screening kit), COX-2; format: biochemical; conditions: for inhibition at 2 µM: read-out: COX-2 (%) inhibition; for S I (selectivity COX-2/COX-1): ratio of % inhibition COX-2/COX-1 at 2.0 μM
T1 construct: purchased Cayman chemicals, USA
T1 sequence (P79208 17-603): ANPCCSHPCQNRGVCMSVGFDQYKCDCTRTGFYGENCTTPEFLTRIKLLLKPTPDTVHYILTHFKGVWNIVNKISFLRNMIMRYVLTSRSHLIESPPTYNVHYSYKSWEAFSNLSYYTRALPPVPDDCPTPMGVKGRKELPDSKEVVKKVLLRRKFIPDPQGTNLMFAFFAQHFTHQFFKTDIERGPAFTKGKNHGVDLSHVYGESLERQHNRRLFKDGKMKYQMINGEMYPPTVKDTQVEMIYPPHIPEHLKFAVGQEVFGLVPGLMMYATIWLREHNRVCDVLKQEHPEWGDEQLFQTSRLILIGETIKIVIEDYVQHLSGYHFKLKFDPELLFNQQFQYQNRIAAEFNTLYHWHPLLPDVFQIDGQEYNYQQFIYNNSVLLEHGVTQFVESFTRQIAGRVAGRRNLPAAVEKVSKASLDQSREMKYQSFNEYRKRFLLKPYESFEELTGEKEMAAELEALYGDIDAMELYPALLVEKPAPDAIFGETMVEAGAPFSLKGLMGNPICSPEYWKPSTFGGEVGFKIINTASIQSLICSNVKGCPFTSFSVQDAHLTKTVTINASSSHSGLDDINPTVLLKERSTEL
Experimental: (§1) The calculations were performed as per the kit guidelines.

[1] = Determination of LD50 in mice; conditions: mouse, in vivo, ip; male mice, intraperitoneal, observation 72 h
Experimental: Male mice were divided into various groups and test compounds were administered in various doses intraperitoneally. […] All behavioral changes and deaths during the observation periods were recorded. The percentage of death at each dose level was then calculated, converted to probits and the LD50 (μM/kg) values were calculated. To observe the health status of the mice, they were monitored 4 times a day. […] For the purpose of ameliorating the suffering of the dying mice, CO2 euthanasia was applied. All the dead mice were disposed in bio-safety containers in accordance with local standard protocols. The mortality rate in each group was calculated according to the formula: Mortality rate(%)=(the number of dead mice/the number of mice in the group)×100.

COX-1 = target: T2, COX-1 (Ovis aries, UniProt P05979); test: In vitro cyclooxygenase inhibitory assay (Cayman colorimetric COX (ovine) inhibitor screening kit), COX-1; format: biochemical; conditions: read-out: COX-1 (%) inhibition
T2 construct: purchased Cayman chemicals, USA
T2 sequence (P05979 25-600): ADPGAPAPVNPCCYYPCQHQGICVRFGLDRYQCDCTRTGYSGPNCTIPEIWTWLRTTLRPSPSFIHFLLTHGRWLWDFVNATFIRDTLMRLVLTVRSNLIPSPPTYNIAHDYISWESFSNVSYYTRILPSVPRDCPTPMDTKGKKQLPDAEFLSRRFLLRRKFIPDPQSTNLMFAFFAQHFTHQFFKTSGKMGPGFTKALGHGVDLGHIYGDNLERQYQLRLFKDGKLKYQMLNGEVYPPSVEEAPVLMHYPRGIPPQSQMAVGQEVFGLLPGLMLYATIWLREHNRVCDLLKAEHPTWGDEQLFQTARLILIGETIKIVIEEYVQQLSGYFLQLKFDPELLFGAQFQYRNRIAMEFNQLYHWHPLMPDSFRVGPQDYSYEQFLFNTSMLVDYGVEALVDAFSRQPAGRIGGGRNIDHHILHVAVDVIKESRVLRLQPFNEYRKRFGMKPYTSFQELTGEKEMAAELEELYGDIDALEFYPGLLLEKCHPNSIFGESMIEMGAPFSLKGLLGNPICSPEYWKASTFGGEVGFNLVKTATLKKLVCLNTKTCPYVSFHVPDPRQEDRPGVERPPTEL
Experimental: as §1

[2] = tested on: carrageenan induced rat paw edema; test: carrageenan-induced rat paw edema bioassay; format: in vivo; conditions: % inhibition of carrageenan induced rat paw edema, intraperitoneal; for Anti-inflammatory activity, 0.5 h (%): 0.5 h after treatment; for Anti-inflammatory activity, 1 h (%): 1 h after treatment; for Anti-inflammatory activity, 2 h (%): 2 h after treatment; for Anti-inflammatory activity, 3 h (%): 3 h after treatment
Experimental: Male albino rats weighing 300 g where purchased from the Department of Zoology and Environmental Biology, University of Nigeria, Nsukka and kept at room temperature in a light controlled animal house. They were fasted with free access to water at least 12 h prior to the experiments. […] The positive control received celecoxib while the negative control received only the vehicle. Edema was produced by injecting 0.2 mL of a solution of 1% carrageenan in the hind paw. The rats were injected intraperitoneally with 1 mL suspension in 0.5% methylcellulose of the tested compounds and reference drug. Paw volume was measured by water displacement with a plethysmometer (UGO BASILE) before, 30 min, 1 h, 2 h and 3 h after treatment. The percentage was calculated by the following equation [25].
Anti-inflammatory activity (%) = (1-D/C)[…], where D represents the difference in paw volume before and after drug administration to the rats and C represents the difference of volume in the control groups. The approval for the use of animal was obtained from the University of Nigeria committee on experimental animal use. No sign of death was observed during the experiment.

SMILES	inhibition at 2 µM (COX-2)	LD50 at 72 h [1]	inhibition at 2 µM (COX-1)	Anti-inflammatory activity, 0.5 h (%) [2]	Anti-inflammatory activity, 1 h (%) [2]	Anti-inflammatory activity, 2 h (%) [2]	Anti-inflammatory activity, 3 h (%) [2]	inhibition at 2 µM (COX-2; concentration of 2.0 μM)	S I (selectivity COX-2/COX-1) (COX-2)	inhibition at 2 µM (COX-1; concentration of 2.0 μM)	selectivity for COX-2 (in words) (COX-2; from COX-2/COX-1 % inhibition at 2.0 μM)
Cc1ccc(S(=O)(=O)N2CC(O)C[C@H]2C(=O)Nc2cc(C)ccn2)cc1 (stereo partly drawn) [Compound 7o, (2S)-4-Hydroxy-1-(4-methylbenzenesulfonyl)-N-(4-methylpyridin-2-yl)pyrrolidine-2-carboxamide]	18%	10.1 µmol/kg	6%	21.54%	11.23%	8.78%	5.56%				
Cc1ccc(S(=O)(=O)N(CC(=O)Nc2cc(C)ccn2)C(=O)c2ccccc2)cc1 [Compound 7i, 2-[N-(4-methylbenzenesulfonyl)-1-phenylformamido]-N-(4-methylpyridin-2-yl)acetamide]		18.2 µmol/kg		24.62%	23.53%	16.78%	12.47%	18%	6.00	3%	
Cc1ccnc(NC(=O)CN(C(=O)c2ccccc2)S(=O)(=O)c2ccc([N+](=O)[O-])cc2)c1 [Compound 7a, N-(4-methylpyridin-2-yl)-2-[N-(4-nitrobenzenesulfonyl)-1-phenylformamido]acetamide]		12.9 µmol/kg		24.62%	18.82%	14.24%	11.85%	49%	3.5	14%	
Cc1ccnc(NC(=O)[C@H](Cc2cc3ccccc3[nH]2)N(C(=O)c2ccccc2)S(=O)(=O)c2ccc([N+](=O)[O-])cc2)c1 [Compound 7c, (2S)-3-(1H-indol-2-yl)-N-(4-methylpyridin-2-yl)-2-[N-(4-nitrobenzenesulfonyl)-1-phenylformamido]propanamide]	70%	8.3 µmol/kg	2%	49.23%	62.35%	75.75%	88.89%				
Cc1ccc(S(=O)(=O)N(C(=O)c2ccccc2)[C@@H](Cc2ccccc2)C(=O)Nc2cc(C)ccn2)cc1 [Compound 7j, (2S)-2-[N-(4-methylbenzenesulfonyl)-1-phenylformamido]-N-(4-methylpyridin-2-yl)-3-phenyl propanamide]		17.6 µmol/kg		41.54%	40.59%	39.84%	36.42%	30%	3.00	10%	
Cc1ccc(S(=O)(=O)N2CCC[C@H]2C(=O)Nc2cc(C)ccn2)cc1 [Compound 7p, (2S)-1-(4-Methylbenzenesulfonyl)-N-(4-methylpyridin-2-yl)pyrrolidine-2-carboxamide]	20%	9.9 µmol/kg	8%	29.15%	28.24%	30.34%	33.26%				
Cc1ccnc(NC(=O)[C@H](Cc2ccccc2)N(C(=O)c2ccccc2)S(=O)(=O)c2ccc([N+](=O)[O-])cc2)c1 [Compound 7b, (2S)-N-(4-methylpyridin-2-yl)-2-[N-(4-nitrobenzenesulfonyl)-1-phenylformamido]-3-phenyl propanamide]		14.2 µmol/kg		32.31%	17.06%	17.03%	12.96%	52%	6.5	8%	
Cc1ccnc(NC(=O)[C@@H]2CCCN2S(=O)(=O)c2ccc([N+](=O)[O-])cc2)c1 [Compound 7h, (2S)-N-(4-methylpyridin-2-yl)-1-(4-nitrobenzenesulfonyl)pyrrolidine-2-carboxamide]	13%	10.7 µmol/kg	30%	27.69%	17.06%	16.59%	16.05%				
Cc1ccnc(NC(=O)[C@@H]2CC(O)CN2S(=O)(=O)c2ccc([N+](=O)[O-])cc2)c1 (stereo partly drawn) [Compound 7g, (2S)-4-Hydroxy-N-(4-methylpyridin-2-yl)-1-(4-nitrobenzenesulfonyl)pyrrolidine-2-carboxamide]	20%	9.9 µmol/kg	18%	46.92%	53.53%	58.84%					
CCC(C)[C@@H](C(=O)Nc1cc(C)ccn1)N(C(=O)c1ccccc1)S(=O)(=O)c1ccc(C)cc1 (stereo partly drawn) [Compound 7m, (2S)-3-Methyl-2-[N-(4-methylbenzenesulfonyl)-1-phenylformamido]-N-(4-methylpyridin-2-yl) pentanamide]		11.9 µmol/kg		13.85%	12.35%	8.59%	8.58%	25%	1.47	17%	non-selective
Cc1ccc(-c2cc(C(F)(F)F)nn2-c2ccc(S(N)(=O)=O)cc2)cc1 [Celecoxib, celecoxib, reference compound]		9.8 µmol/kg		56.92%	63.53%	64.84%	82.60%				
